# Measured values: ChEMBL document CHEMBL1201862, “PubChem BioAssay data set” (2004)
# Active and inactive are the calls of the source.
# Legend:
# [1] = YAP1 pathway inhibition via CTGF transcript levels, dose response, cell-based, DLD1 colon cancer, RT-qPCR, cherry-pick (AID 1053122); assay type: functional; settings: Cancer cell lines
# [2] = HeLa cell cytotoxicity, dose response, cytotoxicity control, 24 h, plate reader, dry powder (AID 686928); assay type: functional, cell-based
# cells = assay type: functional, cell-based
# [3] = target: T1, Nuclear receptor subfamily 0 group B member 1 (Homo sapiens, UniProt P51843); assay type: functional, cell-based;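 also: HEK293T cells transfected with SF-1 and DAX-1 plus StAR promoter luciferase reporter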
# T1 sequence (P51843 whole entry): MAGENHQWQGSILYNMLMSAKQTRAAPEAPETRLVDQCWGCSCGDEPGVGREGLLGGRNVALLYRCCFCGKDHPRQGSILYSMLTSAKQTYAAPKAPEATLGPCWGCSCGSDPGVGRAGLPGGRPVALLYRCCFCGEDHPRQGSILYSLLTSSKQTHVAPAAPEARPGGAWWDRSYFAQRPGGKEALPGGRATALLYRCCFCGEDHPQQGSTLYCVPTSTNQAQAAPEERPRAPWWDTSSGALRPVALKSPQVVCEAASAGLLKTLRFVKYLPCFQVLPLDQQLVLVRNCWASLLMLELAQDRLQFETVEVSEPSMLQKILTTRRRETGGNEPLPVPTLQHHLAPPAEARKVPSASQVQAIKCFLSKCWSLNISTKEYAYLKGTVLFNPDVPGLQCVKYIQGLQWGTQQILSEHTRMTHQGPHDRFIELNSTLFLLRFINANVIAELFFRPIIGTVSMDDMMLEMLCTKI
# [4] = Mycobacterium tuberculosis BioA enzyme inhibitor Measured in Biochemical System Using Plate Reader - 2163-02_Inhibitor_Dose_DryPowder_Activity.
# [5] = LGR2 antagonists, dose response, cell-based, HEK293, CRE-luciferase reporter, cherry pick (AID 743342); assay type: functional
# [6] = target: Endoplasmic reticulum aminopeptidase 1 (Homo sapiens, UniProt Q9NZ08); experiment: ERAP1 aminopeptidase inhibitors, dose response, biochemical, cherry-pick, set 2, plate reader (AID 743314)
# [7] = target: 5-hydroxytryptamine receptor 2A (Mus musculus, UniProt P35363); assay type: functional, cell-based;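 also: CHO-K1 cells with tagged receptor and beta-arrestin; agonist potency measured as compound-induced activation of the receptor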
# Mu-type opioid receptor = Mu-type opioid receptor (Homo sapiens, UniProt P35372); assay type: functional, cell-based;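 also: U2OS cells with beta-arrestin recruitment to OPRM1 by beta-gal complementation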
# [8] = A Cell-Based Confirmatory Screen for Compounds that Inhibit VEEV, TC-83 (8).; assay type: functional
# [9] = target: Acyl-protein thioesterase 2 (Homo sapiens, UniProt O95372); experiment: Late stage assay provider results from the probe development effort to identify selective inhibitors of LYPLA2: fluorescence-based biochemical dose-response assay.
# [10] = Shn3 3'UTR reporter inhibitors, dose response, cell-based, Clone20 osteoblasts, firefly luciferase, cherry-picked (AID 624132); assay type: functional;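 also: firefly luciferase luminescence from reporter carrying the Shn3 3'UTR in osteoblasts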
# [11] = target: Matrix metalloproteinase-14 (Homo sapiens, UniProt P50281); experiment: Dose Response confirmation of uHTS hits for a small molecule inhibitors of MT1-MMP activation in a fluorescence assay set 1.; assay type: functional
# Protein Wnt-3a = Protein Wnt-3a (Mus musculus, UniProt P27467); experiment: Wnt3a-driven reporter signaling inhibition, dose response, selectivity assay for Gli-SUFU antagonist project, Wnt-LIGHT cells, luminescence (AID 651570); assay type: functional; settings: read-out: IC50_Mean;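 also: Wnt-LIGHT reporter cells stimulated with conditioned medium from Wnt3a-producing cells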
# [12] = HepG2 cell cytotoxicity, dose response, cytotoxicity control for Shn3 inhibitor project, CellTiter-Glo, cherry-picked (AID 624134); assay type: functional, cell-based
# [13] = control 3'UTR Renilla luciferase suppression, dose response, counter-screen for Shn3 inhibitor project, cell-based, Clone20-Shn3RL, cherry-picked (AID 624133); assay type: functional
# Vero = Vero cell cytotoxicity, cytotoxicity control for flavivirus capping enzyme inhibitors (AID 588742); assay type: functional; settings: Chlorocebus sabaeus
# [14] = target: T2, Histone-lysine N-methyltransferase NSD2 (Homo sapiens, UniProt O96028); assay type: biochemical
# T2 sequence (O96028 whole entry): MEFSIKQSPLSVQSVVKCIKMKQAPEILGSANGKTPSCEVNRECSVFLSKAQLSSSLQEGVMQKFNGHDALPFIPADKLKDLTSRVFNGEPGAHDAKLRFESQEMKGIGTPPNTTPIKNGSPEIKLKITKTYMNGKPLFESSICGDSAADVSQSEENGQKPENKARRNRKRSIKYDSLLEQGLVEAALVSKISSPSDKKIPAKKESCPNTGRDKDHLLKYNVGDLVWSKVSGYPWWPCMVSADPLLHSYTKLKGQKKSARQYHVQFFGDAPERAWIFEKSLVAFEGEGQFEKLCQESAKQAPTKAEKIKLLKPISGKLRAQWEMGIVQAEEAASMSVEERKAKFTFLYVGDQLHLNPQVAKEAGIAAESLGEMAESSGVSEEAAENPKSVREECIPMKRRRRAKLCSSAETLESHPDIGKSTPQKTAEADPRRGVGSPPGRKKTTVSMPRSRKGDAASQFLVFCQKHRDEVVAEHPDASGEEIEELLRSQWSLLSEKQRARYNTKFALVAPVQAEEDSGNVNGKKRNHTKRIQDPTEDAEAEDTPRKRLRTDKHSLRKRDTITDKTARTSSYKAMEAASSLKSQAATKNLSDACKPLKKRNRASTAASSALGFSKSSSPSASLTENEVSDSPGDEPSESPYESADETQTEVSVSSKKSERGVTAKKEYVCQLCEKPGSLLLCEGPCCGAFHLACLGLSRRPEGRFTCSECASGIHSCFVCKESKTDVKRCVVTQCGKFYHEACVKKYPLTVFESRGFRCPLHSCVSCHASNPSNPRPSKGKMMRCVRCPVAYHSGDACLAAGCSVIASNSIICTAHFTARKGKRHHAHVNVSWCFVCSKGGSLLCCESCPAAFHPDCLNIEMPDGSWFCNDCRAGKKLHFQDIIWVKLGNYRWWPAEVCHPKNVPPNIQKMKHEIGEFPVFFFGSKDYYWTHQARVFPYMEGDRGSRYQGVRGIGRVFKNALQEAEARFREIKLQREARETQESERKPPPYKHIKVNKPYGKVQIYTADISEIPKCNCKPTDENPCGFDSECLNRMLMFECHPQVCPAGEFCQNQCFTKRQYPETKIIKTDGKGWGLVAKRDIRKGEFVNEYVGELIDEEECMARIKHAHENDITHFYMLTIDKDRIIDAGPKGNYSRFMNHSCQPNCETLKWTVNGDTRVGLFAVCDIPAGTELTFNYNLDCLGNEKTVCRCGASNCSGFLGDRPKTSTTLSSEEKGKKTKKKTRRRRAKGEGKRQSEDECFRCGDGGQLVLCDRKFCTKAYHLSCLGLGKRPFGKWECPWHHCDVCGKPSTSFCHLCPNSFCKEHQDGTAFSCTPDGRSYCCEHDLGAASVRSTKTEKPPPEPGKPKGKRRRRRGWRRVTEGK
# [15] = target: Tyrosyl-DNA phosphodiesterase 2 (Homo sapiens, UniProt O95551); experiment: human TDP2 enzyme inhibitors, dose response, biochemical, epi absorbance, IC50 (AID 743297)
# fMet-Leu-Phe receptor = fMet-Leu-Phe receptor (Homo sapiens, UniProt P21462); experiment: FPR ligands, dose response (AID 519); assay type: functional
# Cytochrome P450 1A2 = target: T3, Cytochrome P450 1A2 (Homo sapiens, UniProt P05177);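 also: PubChem cytochrome P450 panel assay, CYP1A2 panel member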
# T3 sequence (P05177 whole entry): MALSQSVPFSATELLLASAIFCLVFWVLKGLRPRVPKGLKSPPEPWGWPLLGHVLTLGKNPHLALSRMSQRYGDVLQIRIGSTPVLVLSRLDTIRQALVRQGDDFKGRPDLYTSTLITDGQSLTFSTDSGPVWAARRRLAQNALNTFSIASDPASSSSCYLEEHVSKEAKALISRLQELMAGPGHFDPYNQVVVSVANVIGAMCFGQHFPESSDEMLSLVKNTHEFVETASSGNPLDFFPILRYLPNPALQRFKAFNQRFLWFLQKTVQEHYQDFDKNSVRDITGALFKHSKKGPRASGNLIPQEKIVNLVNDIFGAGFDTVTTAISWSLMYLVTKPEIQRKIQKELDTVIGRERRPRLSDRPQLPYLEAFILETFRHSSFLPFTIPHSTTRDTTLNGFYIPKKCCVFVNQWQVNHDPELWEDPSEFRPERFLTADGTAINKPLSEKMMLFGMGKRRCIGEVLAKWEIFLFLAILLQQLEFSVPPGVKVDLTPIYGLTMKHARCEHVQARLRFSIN
# Streptococcus = experiment: Group A Streptococcus viability loss, dose response, counter-screen for streptokinase expression inhibitor project, luminescence, BacTiterGlo (AID 1915); assay type: functional, organism-based;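 also: potency for reduction of bacterial viability or growth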
# [16] = target: Disintegrin and metalloproteinase domain-containing protein 17 (Homo sapiens, UniProt P78536); experiment: exosite inhibitors of ADAM17, dose response, biochemical (AID 743260)
# [17] = target: Induced myeloid leukemia cell differentiation protein Mcl-1 (Homo sapiens, UniProt Q07820); assay type: functional
# [18] = target: Long-chain-fatty-acid--AMP ligase FadD28 (Mycobacterium tuberculosis, UniProt P9WQ59); experiment: Fluorescence polarization aasay to screen for inhibitors that compete for the binding of FadD28 to a bisubstrate Measured in Biochemical System Using Plate Reader - 2147-01_Inhibitor_Dose_CherryPick_Activity.; assay type: functional, Mycobacterium tuberculosis H37Rv
# Genome polyprotein = Genome polyprotein (dengue virus type 2, UniProt P29990); experiment: Dengue-2 NS5 methyltransferase inhibitors, primary screen, biochemical, confirmation dose response (AID 588689); assay type: functional
# Streptokinase A = target: T4, Streptokinase A (Streptococcus pyogenes serotype M1, UniProt P10520); experiment: S. pyogenes streptokinase expression inhibitors, potency, dose response, plasminogen activation absorbance, OD405 (AID 1914); assay type: functional, Streptococcus pyogenes M1 GAS;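 also: secreted streptokinase activity via plasminogen activation per viability signal from cell pellet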
# T4 sequence (P10520 whole entry): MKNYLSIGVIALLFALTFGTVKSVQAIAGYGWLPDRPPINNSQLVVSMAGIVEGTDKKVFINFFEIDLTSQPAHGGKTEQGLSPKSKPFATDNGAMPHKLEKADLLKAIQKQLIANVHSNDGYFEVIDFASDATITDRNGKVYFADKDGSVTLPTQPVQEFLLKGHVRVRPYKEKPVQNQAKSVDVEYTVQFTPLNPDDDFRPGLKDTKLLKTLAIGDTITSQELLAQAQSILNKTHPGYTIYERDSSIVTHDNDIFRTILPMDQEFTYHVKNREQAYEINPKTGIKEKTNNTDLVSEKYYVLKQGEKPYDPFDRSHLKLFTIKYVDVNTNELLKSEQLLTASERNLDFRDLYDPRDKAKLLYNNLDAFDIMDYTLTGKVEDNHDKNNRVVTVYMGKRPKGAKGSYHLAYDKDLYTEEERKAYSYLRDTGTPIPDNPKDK
# [19] = ADAM10 protease inhibitors, dose response, selectivity assay for ADAM17 exosite inhibitor project, biochemical, FRET peptide substrate, recombinant human ADAM10 (AID 743259);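 also: ADAM10 enzyme cleaving a FRET peptide substrate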
# [20] = tested on: Streptococcus sp. 'group A'; experiment: growth inhibition of control SK(-) GAS strain, dose response, counter-screen for streptokinase expression inhibitor project, luminescence, kanamycin, BacTiterGlo, confirmation (AID 1900); assay type: functional, organism-based
# Sequence of Genome polyprotein (P29990 2492-3391 limits assumed): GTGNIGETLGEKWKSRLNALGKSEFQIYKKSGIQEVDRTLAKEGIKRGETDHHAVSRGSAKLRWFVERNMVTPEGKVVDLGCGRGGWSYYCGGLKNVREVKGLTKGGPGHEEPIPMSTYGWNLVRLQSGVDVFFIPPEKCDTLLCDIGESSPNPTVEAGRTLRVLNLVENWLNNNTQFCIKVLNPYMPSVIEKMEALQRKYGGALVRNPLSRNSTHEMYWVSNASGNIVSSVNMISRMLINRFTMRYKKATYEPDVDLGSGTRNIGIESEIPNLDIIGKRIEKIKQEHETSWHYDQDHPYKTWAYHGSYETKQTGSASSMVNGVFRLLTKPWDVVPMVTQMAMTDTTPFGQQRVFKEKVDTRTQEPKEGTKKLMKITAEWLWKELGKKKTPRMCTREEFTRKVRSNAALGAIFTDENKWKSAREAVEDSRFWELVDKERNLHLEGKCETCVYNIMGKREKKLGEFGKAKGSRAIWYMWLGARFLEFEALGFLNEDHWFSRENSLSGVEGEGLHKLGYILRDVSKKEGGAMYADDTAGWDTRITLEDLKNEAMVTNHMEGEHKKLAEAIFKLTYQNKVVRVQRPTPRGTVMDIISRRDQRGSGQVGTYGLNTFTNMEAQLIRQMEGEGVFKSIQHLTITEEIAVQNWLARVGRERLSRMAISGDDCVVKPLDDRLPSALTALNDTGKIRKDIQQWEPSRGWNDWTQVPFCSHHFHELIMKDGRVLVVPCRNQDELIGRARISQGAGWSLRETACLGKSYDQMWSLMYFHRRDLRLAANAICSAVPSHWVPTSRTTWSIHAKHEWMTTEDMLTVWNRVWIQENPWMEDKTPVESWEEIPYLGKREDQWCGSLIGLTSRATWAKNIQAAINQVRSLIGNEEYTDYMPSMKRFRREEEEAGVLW
# Sequence of Acyl-protein thioesterase 2 (O95372 whole entry): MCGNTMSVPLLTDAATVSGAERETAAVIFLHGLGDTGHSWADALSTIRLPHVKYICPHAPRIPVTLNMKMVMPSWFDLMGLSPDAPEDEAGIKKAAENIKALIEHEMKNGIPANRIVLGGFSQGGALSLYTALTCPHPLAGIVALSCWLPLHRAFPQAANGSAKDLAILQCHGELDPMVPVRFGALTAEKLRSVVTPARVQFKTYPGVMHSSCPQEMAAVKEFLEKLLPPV
# Sequence of Long-chain-fatty-acid--AMP ligase FadD28 (P9WQ59 whole entry): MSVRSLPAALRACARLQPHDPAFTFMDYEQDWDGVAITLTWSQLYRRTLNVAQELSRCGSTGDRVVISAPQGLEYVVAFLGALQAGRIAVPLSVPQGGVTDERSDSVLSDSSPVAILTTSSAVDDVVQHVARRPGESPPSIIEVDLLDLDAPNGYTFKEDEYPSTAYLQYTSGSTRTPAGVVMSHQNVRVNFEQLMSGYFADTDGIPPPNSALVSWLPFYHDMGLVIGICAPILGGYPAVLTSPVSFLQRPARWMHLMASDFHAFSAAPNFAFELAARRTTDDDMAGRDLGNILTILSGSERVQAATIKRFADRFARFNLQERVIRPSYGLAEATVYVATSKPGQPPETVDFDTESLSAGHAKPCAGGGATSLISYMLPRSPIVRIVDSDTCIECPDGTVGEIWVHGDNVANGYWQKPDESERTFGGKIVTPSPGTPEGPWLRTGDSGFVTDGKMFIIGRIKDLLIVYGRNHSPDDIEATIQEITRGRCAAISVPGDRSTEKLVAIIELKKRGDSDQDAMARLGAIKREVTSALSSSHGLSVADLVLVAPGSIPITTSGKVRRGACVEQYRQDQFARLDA
# Sequence of Protein Wnt-3a (P27467 whole entry): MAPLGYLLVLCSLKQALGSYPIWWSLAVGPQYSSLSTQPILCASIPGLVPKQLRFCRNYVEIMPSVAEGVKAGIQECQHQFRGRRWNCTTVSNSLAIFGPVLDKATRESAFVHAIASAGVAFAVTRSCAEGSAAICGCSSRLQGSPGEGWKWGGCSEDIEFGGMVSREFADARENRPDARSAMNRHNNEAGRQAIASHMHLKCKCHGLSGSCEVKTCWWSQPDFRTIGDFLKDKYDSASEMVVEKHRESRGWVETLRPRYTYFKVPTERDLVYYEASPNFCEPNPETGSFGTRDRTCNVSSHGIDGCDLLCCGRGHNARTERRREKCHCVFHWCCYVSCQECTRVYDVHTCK
# Sequence of Mu-type opioid receptor (P35372 whole entry): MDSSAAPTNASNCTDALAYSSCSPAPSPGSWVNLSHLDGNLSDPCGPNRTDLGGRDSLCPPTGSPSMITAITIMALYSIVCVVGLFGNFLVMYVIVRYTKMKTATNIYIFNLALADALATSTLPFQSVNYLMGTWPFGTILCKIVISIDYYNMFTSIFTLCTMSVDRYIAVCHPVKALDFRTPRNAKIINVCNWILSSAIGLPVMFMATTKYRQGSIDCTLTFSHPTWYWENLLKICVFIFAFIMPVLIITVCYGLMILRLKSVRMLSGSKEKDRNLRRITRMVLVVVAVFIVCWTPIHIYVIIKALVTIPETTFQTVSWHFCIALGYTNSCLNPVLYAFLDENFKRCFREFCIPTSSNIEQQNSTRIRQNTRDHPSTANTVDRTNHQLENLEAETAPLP
# Sequence of Tyrosyl-DNA phosphodiesterase 2 (O95551 whole entry): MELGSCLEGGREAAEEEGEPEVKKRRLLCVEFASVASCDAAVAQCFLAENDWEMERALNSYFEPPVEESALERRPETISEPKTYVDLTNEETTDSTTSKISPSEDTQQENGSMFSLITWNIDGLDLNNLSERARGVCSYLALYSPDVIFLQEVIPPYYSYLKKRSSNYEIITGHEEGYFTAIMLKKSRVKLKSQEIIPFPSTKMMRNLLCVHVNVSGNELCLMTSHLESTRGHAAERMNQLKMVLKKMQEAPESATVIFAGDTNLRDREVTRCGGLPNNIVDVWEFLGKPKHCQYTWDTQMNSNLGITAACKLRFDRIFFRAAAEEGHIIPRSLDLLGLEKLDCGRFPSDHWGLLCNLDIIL
# Sequence of 5-hydroxytryptamine receptor 2A (P35363 whole entry): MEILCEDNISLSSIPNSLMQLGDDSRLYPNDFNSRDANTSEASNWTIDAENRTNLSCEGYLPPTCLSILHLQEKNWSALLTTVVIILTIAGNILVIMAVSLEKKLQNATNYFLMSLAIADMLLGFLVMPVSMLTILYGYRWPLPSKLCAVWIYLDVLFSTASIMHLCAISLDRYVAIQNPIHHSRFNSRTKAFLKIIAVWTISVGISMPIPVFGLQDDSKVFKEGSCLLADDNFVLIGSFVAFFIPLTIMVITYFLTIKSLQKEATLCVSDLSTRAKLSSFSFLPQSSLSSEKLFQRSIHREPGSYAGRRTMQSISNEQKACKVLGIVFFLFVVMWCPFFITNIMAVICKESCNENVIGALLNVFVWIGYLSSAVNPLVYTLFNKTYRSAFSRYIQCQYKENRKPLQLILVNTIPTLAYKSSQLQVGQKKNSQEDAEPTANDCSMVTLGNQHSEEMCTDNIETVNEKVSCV
# Sequence of Induced myeloid leukemia cell differentiation protein Mcl-1 (Q07820 whole entry): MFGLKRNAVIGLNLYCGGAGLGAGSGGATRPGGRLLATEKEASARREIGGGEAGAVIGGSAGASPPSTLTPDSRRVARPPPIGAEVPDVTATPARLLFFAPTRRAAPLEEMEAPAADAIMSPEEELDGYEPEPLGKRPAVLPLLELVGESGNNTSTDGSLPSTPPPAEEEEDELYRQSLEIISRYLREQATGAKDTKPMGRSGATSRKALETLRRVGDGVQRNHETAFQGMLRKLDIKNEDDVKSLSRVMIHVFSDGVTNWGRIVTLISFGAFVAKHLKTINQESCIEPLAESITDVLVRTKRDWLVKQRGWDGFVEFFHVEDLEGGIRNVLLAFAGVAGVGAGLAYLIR
# Sequence of Endoplasmic reticulum aminopeptidase 1 (Q9NZ08 whole entry): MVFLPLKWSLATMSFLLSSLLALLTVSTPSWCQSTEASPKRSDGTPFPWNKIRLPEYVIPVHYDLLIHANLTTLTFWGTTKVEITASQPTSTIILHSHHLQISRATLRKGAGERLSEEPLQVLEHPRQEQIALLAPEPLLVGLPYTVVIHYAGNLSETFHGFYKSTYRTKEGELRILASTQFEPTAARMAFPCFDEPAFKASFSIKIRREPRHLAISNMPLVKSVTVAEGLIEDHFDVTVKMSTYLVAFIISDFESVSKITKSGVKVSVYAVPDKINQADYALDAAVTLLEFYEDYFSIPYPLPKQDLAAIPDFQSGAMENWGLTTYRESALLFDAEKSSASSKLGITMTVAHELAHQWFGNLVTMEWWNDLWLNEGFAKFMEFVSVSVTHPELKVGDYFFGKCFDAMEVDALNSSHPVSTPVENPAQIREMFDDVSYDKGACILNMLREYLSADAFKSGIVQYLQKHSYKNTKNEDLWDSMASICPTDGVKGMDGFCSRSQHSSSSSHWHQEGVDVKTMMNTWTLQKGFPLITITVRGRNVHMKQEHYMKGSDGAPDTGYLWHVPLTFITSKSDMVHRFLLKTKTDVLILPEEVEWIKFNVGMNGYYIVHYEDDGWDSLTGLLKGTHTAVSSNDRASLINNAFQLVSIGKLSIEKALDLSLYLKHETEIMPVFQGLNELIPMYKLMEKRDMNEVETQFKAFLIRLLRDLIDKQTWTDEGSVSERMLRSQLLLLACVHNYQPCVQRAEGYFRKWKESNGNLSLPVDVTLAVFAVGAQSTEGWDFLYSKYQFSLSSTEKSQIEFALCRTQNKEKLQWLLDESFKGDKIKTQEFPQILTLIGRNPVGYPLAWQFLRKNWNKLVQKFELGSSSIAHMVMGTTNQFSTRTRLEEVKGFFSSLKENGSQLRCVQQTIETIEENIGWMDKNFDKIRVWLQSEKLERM
# Sequence of fMet-Leu-Phe receptor (P21462 whole entry): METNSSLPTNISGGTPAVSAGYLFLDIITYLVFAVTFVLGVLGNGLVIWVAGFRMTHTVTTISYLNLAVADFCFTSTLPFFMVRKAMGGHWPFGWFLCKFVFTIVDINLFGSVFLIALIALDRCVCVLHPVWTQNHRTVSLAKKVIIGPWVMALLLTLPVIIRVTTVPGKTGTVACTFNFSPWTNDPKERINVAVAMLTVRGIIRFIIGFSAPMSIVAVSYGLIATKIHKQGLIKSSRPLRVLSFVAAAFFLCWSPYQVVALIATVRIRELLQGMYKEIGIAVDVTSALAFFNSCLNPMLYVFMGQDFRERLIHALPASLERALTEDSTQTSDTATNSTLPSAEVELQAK
compound,measurement,setting,value
O=C(c1cccc(F)c1)N1CCCCN2[C@@H](CO)[C@H](c3ccc(C#CC4(O)CCCC4)cc3)[C@@H]2C1,AC50,[1],1.16 µM (active)
COc1ccc(-n2cnc(=O)c3ccccc32)cc1Cl,AC50,[2],> 160 µM (inactive)
CN1OC[C@@H]2CN[C@H](c3ccc(-c4cccc(F)c4)cc3)C[C@@H]21,IC50,cells,> 67.5 µM (inactive)
same,IC50,[3],> 67.5 µM (inactive)
O=C(Nc1cccc(Cl)c1)N1CCN(c2ccccc2)CC1,AC50,[4],11 µM (active)
C[C@H](CO)N1C[C@H](C)[C@H](CN(C)C(=O)Nc2ccc(F)cc2)OCCCC[C@H](C)Oc2ccc(NC(=O)NC3CCCCC3)cc2C1=O,AC50,[5],8.05 µM (active)
Cc1cc(=O)oc2c(CN3CCN(CCO)CC3)c(O)ccc12,AC50,[6],9.03 µM (active)
Cc1cccc(C)c1-n1nnnc1C(C1CC1)N1CCN(C/C=C/c2ccccc2)CC1 (centres undefined),EC50,[7],0.94 µM (active)
same,EC50,Mu-type opioid receptor,92.6 µM (inactive)
CNCCCN(C)Cc1nc2ccc([N+](=O)[O-])cc2c(=O)n1-c1ccccc1,IC50,[8],< 0.5 µM (active)
O=C(CN1CCN(C(=O)c2ccco2)CC1)Nc1cc(C(F)(F)F)ccc1Cl,IC50,[9],> 10 µM (inactive)
CNc1ccccc1C(C)(C)c1cc(-c2cccc(Br)c2)no1,AC50,[10],2 µM (active)
same,IC50,[11],> 80 µM (inactive)
same,IC50,Protein Wnt-3a,1.8 µM (active)
same,AC50,[12],44.5 µM (active)
same,AC50,[13],9.45 µM (active)
O=C1C=C(Nc2cccnc2)c2ccccc2C1=O,CC50,Vero,12.1 µM (active)
same,AC50,[14],3.7 µM (active)
same,IC50,[15],4.03 µM (active)
Cc1nn2c(O)c(C#N)c(-c3ccccc3)nc2c1-c1ccccc1,Ki,fMet-Leu-Phe receptor,> 66.7 µM (inactive)
same,AC50,Cytochrome P450 1A2,20 µM (inconclusive)
Cc1[nH]n(-c2ncc(-c3ccccc3)s2)c(=O)c1C(c1ccc(Br)cc1)C(C#N)C#N (centres undefined),EC50,Streptococcus,5.75 µM (active)
same,IC50,[16],> 69.5 µM (inactive)
same,IC50,[17],4.67 µM (active)
same,AC50,[18],35.5 µM (active)
same,IC50,Genome polyprotein,22.3 µM (active)
same,EC50,Streptokinase A,> 150 µM (not active)
same,IC50,[19],10.6 µM (inactive)
same,EC50,[20],3.39 µM (active)
